# Measured values: patent publication US8901357B2, “Dibenzoyl peroxide derivatives, preparation method thereof and cosmetic or dermatological compositions containing same” (Galderma Research & Development, priority 2009, dated 2014)
# System: Propionibacterium acnes
# Assay: Sensitivity of peroxides versus dibenzoyl peroxide on Propionibacterium acnes: MIC, dilution method in agar medium (CLSI M11A7)
# Format: cell-based
# Details: Cutibacterium acnes, 48 h
# [1] = P. acnes strain 998, read after 48 hours anaerobic incubation
# [2] = P. acnes strain 1044, read after 48 hours anaerobic incubation
# [3] = P. acnes strain 1045, read after 48 hours anaerobic incubation
# [4] = P. acnes strain 1201, read after 48 hours anaerobic incubation
# [5] = P. acnes strain 3069, read after 48 hours anaerobic incubation
# [6] = P. acnes strain CSS 2913, read after 48 hours anaerobic incubation
# [7] = P. acnes strain CSS 2971, read after 48 hours anaerobic incubation
# [8] = P. acnes strain CSS 3288, read after 48 hours anaerobic incubation
# [9] = P. acnes strain UAA 2281, read after 48 hours anaerobic incubation
# [10] = P. acnes strain UAA 2285, read after 48 hours anaerobic incubation
SMILES,MIC [1] [µg/mL],MIC [2] [µg/mL],MIC [3] [µg/mL],MIC [4] [µg/mL],MIC [5] [µg/mL],MIC [6] [µg/mL],MIC [7] [µg/mL],MIC [8] [µg/mL],MIC [9] [µg/mL],MIC [10] [µg/mL]
O=C(OOC(=O)c1ccccc1)c1ccccc1 [Benzoyl peroxide],640,640,640,640,640,640,640,640,640,640
"CCCCCCCC(=O)c1ccc(OC(C)=O)c(C(=O)OOC(=O)c2ccccc2)c1 [Example 1, (2-acetoxy-5-octanoylbenzoyl)benzoyl peroxide]",1280,320,320,320,1280,320,320,320,320,320
